Data set [1] has as its system CLL B cells. The data set can be described thus: Apoptosis/cytotoxicity in CLL B cells in vitro. The format is cell-based, human.
The test system of data set [2] is SV40 transformed synovial cells. The data set can be described thus: Apoptosis of synovial cells. The data set is classed as cell-based, human. To be noted: data not shown.
In data set [3] the target is T1, DR4 (Homo sapiens, UniProt O00220).
T1 construct: a fusion protein comprising the extracellular domain of human DR5 or DR4 and the Fc region of human IgG1; human IgG1 Fc (Ig)
Nature of the data set: ELISA binding of TRAIL and TRA-8 to the receptors. Here is the method:
ELISA plates are coated with 2 μg/ml of DR4-Ig or DR5-Ig fusion protein overnight. […] The reactions are developed by TMB substrate buffer and measured by the Benchmark Microplate Reader (BioRad). The Kd values are estimated by the one-site binding model of non-linear regression using GraphPad Prism® software (GraphPad Software, San Diego, Calif.).
For orientation: ELISA stands for enzyme-linked immunosorbent assay.

For data set [4], the target named is T2, DR5 (Homo sapiens, UniProt O14763).
T2 construct: fusing cDNA from residues 1-180 of the extracellular portion of DR5; made in house; host or cells: QBI-293A cells, recombinant adenovirus (pAdΔDR5-Fc)
Nature of the data set: ELISA binding of TRAIL and TRA-8 to the receptors. From the text:
The reactions are developed by TMB substrate buffer and measured by the Benchmark Microplate Reader (BioRad). The Kd values are estimated by the one-site binding model of non-linear regression using GraphPad Prism® software (GraphPad Software, San Diego, Calif.).

For data set [5], the system named is OA72M cells. Nature of the data set: Apoptosis of primary synovial cells. The format is cell-based, human. From the text:
(§1) Cell viability is the percentage of the cpm of treated cells versus the cpm of untreated cells.
(§2) The expression of DR5 on a panel of eight primary cultured synovial cells from patients with RA is compared with that on eight primary cultured synovial cells from patients with osteoarthritis (hereinafter referred to as “OA”). The eight human primary RA synovial cell cultures RA-1014, RA-1016, RA-1021, RA-512, RA-707, RA-811, RA-716, and RA-929 are kindly provided by Dr. M. Ohtsuki (Sankyo Co. Ltd., Tokyo, Japan) and cultured in DMEM supplemented with 10% FCS, penicillin, streptomycin, and glutamine. The […] OA synovial cell primary cell cultures are isolated from the synovial tissues of OA patients by a standard collagenase method and cultured under the same conditions. The passage number of all primary cells is under 10. The expression of DR5 is determined by FACs analysis as described in Example 5.

Data set [6] relates to RA-1014, RA-811, RA-716, and RA929. The data set can be described thus: Apoptosis of primary synovial cells. The format is cell-based, human. Conditions: high concentrations (>50 ng/ml).
From the text: as §1, §2

Data set [7] deals with NF-κb. The data set can be described thus: Gel-shift assay of NF-κb activation in RA synovial cells. The format is cell-based, human. Conditions: 50 ng/ml TRAIL, Fas ligand or TRA-8; 20 ng/ml TNF-a. How it is done: There is considerable evidence to support the concept that there are close links between the signaling of apoptosis and the signaling of proliferation (45). It has been established that DR5 is able to activate a NF-kb pathway in addition to apoptosis signaling transduction, and that NF-κb activation may be able to transduce an anti-apoptosis signal. Therefore a gel-shift assay is carried out. […] The nuclear extracts are prepared and incubated with the […] [^32P]-labeled oligo-DNA probe. The results are analyzed using the cyclone phospha-imager (TopCount NXT, Packard Instrument Company, CT).

Data set [8] relates to Jurkat and CEM-6. Nature of the data set: Apoptosis susceptibility (ATPLite, overnight). To be noted: TRAIL plus crosslinker. The data set is classed as cell-based, human. Here is the method: (§3) Cell viability is determined using (1) the ATPLite® kit according to the manufacturer's instructions (Packard Instruments, Meriden, Conn.); (2) the MTT Cell proliferation/viability kit (Sigma); or (3) PI staining of dead cells and analyzed by flow cytometry. At end of culture, cells are stained with 10 μg/ml PI and PI negative cells are gated as viable cells. For analysis of condensed nuclei of hepatocytes, cells are stained with 10 ng/ml Hoechst 33352 (Molecular Probes) and analyzed by flow cytometry.
Background: ATP-based viability assays read luminescence as a measure of living cells.

In data set [9] the test system is primary B cells. The data set can be described thus: Apoptosis susceptibility (ATPLite, overnight). The data set is classed as cell-based, human. To be noted: TRAIL plus crosslinker. How it is done:
as §3

The test system of data set [10] is Molt-4 and U937 cells. Nature of the data set: Apoptosis susceptibility (ATPLite, overnight). Conditions: TRAIL plus crosslinker. The format is cell-based, human. How it is done: as §3
The test system of data set [11] is glioma cell lines Hs683 and U251-MG. Nature of the data set: Apoptosis susceptibility (ATPLite, overnight). The format is cell-based, human. How it is done:
as §3

The subject of data set [12] is H-9 cells. The data set can be described thus: Apoptosis susceptibility (ATPLite, overnight). The data set is classed as cell-based, human. Conditions: TRAIL plus crosslinker. How it is done: as §3
Data set [13] relates to U87, U937 and Molt-4. Nature of the data set: Apoptosis susceptibility (ATPLite, overnight). The format is cell-based, human. Here is the method: as §3
Data set [14] concerns Primary peripheral blood T cells. Nature of the data set: Apoptosis susceptibility (ATPLite, overnight). The format is cell-based, human. Conditions: TRAIL plus crosslinker. How it is done:
as §3

For data set [15], the system named is Daudi. The data set can be described thus: Apoptosis susceptibility (ATPLite, overnight). The data set is classed as cell-based, human. Conditions: TRAIL plus crosslinker. How it is done:
as §3

The test system of data set [16] is B lymphoma cell lines SKW6.4, EB-3, and Raji. Nature of the data set: Apoptosis susceptibility (ATPLite, overnight). The format is cell-based, human. To be noted: TRAIL plus crosslinker. Here is the method: as §3
Data set [17] relates to normal human hepatocytes. The data set can be described thus: Hepatocellular toxicity, cell viability (ATPLite). The format is cell-based. From the text: For 24-hour cell viability assays, fresh normal human hepatocytes in 96-well plates were purchased from In Vitro Technology (Baltimore, Md.). […] For 6-hour viability assays, normal hepatocytes or hepatocellular cancer cells are isolated from fresh surgical specimens collected from UAB Tissue Procurement Center. All reagents for isolation of human hepatocytes including hepatocytes perfusion buffer, digest medium, washing medium, and attachment medium were purchased from Gibco. The tissue slides are digested in the Hepatocyte Digest Medium at 37° C. with shaking (50 rpm) for one hour. The isolated hepatocytes are harvested by low speed centrifugation (50 g, 3 min), and washed with the Hepatocyte Washing Medium six times. Single cell suspension of hepatocytes are cultured in the Attachment Medium containing 10% FCS in 96-well Matrigel plates (BD) for six hours. Non-attached hepatocytes are removed by twice washing with pre-warmed attachment medium.

The nature of data set [18]: Induction of hepatitis in vivo by tetracycline-inducible adenoviral vectors. On the set-up: species or system B6 mice. Conditions: 10 μg in Ad/TRAIL inoculated mice, AST at 24 hours. How it is done: 8-10 week-old female B6 mice are intravenously injected with 10^9 pfu of Ad/hTRAIL with the equal number of Ad/Tet-on. Mice are fed with different concentrations of tetracycline in their drinking water immediately after inoculation of adenoviral vectors. Liver injury is determined by serum levels of AST using an AST diagnostic kit (Sigma). Expression of TRAIL is determined by Northern blot analysis.

Data set [19] relates to non-transformed fibroblast cells. The data set can be described thus: Apoptosis of fibroblast cells. The format is cell-based.
Data set [20] concerns HepG2 cells. Nature of the data set: Cell viability (ATPLite). Conditions: 8-hour culture period. The data set is classed as cell-based, human.
In data set [21] the test system is MMP-1, 3, and 13. The data set can be described thus: Production of MMPs by RA synovial cells (ELISA). The format is cell-based, human. Conditions: overnight; 50 ng/ml interleukin 1b, 10 ng/ml TNF-a, 50 ng/ml TRAIL or TRA-8; vs medium control. How it is done:
Thus, it is possible that TRAIL, like TNF-α, may serve as a pro-inflammatory cytokine. […] The levels of the MMP-1 and MMP-3 in the culture supernatants are determined by the ELISA kits.

The subject of data set [22] is Jurkat cells. The data set can be described thus: Apoptosis-inducing activity of humanized antibody (XTT, 12 hours). To be noted: serial 2-fold dilutions from 100 ng/ml. The data set is classed as cell-based, human. How it is done: Jurkat cells cultured in RPMI1640 medium with 10% FCS (Gibco BRL) at 37° C. for 3 days in the presence of 5% CO2 are dispensed into each well of a 96-well microplate (Sumitomo Bakelite) at 50 μl per well. […] Each of the solutions of the expression products thus adjusted to 100 ng/ml is used to produce serial dilutions by repeating serial 2-fold dilution with RPM11640 containing 10% FCS. […] After reacting at 37° C. for 12 hours, 50 μl of 25 μM PMS (phenazine methosulfate; Sigma Chemical Co.) containing 1 mg/ml XTT (2,3-bis[2-methoxy-4-nitro-5-sulfophenyl]-2H-tetrazolium-5-carboxyaniride inner salt; Sigma Chemical Co.) is added (final concentrations of 250 μg/ml for XTT and 5 μM for PMS). After incubating for 3 hours, the absorbance at 450 nm of each well is measured to calculate the cell viability by using the reduction ability of mitochondria as the index.
The viability of the cells in each well is calculated according to the following formula: Viability(%)=100×(a−b)/(c−b) wherein “a” is the measurement of a test well, “b” is the measurement of a well with no cells, and “c” is the measurement of a well with no antibody added.
On the technique in general: Formazan colour is commonly taken as a measure of viable cells.

T1 sequence (O00220 24-239 limits assumed): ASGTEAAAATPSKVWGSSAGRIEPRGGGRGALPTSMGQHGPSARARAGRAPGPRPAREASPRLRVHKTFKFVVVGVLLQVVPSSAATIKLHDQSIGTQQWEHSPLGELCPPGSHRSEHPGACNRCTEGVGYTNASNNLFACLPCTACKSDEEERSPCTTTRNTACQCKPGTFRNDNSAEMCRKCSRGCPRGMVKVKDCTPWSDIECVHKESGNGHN
T2 sequence (O14763 56-180): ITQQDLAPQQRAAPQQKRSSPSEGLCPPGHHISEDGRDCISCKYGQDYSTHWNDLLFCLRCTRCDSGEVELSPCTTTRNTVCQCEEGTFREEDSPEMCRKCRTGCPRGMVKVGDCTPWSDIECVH

Consider `Cn1cc(C2=C(c3cn(CCCN)c4ccccc34)C(=O)NC2=O)c2ccccc21` [BisVIII, Bisindolylmaleimide VIII], for which the “sensitivity to induced cytotoxicity” value in data set [1] is “sensitive”.

Take “TRAIL: soluble recombinant human TRAIL (aa 95 to 281) FLAG-tagged fusion protein, Alexis; used with anti-FLAG crosslinker”: the susceptibility to apoptosis entry is given as “susceptible” in data set [2]; “completely resistant” in [5]; “highly susceptible” in data set [8]; “did not undergo apoptosis” in [9]; “partially susceptible” in data set [10]; “resistant” in [11]. For the same molecule, the susceptibility to apoptosis entry in data set [12] is on record as “resistant”; in [13], “exhibited sensitivity”; in data set [14], “resistant”; in [15] it was “much less susceptible”; in data set [16] it was “very susceptible”; in [19], “resistant”. Besides, the “binding to DR4” value in data set [3] is given as “bound to DR4”. Moreover, the “binding to immobilized DR5” value in data set [4] was “bound comparably”. Further, the cell death in [6] is on record as around 100%. In data set [7], the NF-κb activation entry is recorded as “activated in a time-dependent fashion”. Further, the “hepatocytes killed in the presence of cycloheximide” value in data set [17] (1 μg/ml TRAIL or TRA-8, 1 μg/ml cycloheximide, four-hour culture) was “greater than 70%”. The hepatocytes killed entry in data set [17] (1 μg/ml, end of 24-hour culture, TRAIL plus crosslinker) was “more than 80%”; in data set [17] (6-hour culture, 500 ng/ml), “Over 20%”. Besides, in [18], the “liver injury after intravenous injection” value is given as “did not exhibit increased liver injury”. This molecule also showed a cells killed in data set [20] of around 100%. In data set [21], the “production/release of MMPs” value is “not associated with increased release”.

B1: humanized TRA-8: humanized TRA-8 of Example 20, cotransfection of pHB14-1 and pSR/M2-1 (H2 heavy, LM2 light chain) (antibody)
VH: EVMLVESGGGLVQPGGSLRLSCAASGFTFSSYVMSWVRQAPGKGLEWVATISSGGSYTYYPDSVKGRFTISRDNAKNTLYLQMNSLRAEDTAVYYCARRGDSMITTDYWGQGTLVTVSS
light: DIVMTQSPSSLSASVGDRVTITCKASQDVGTAVAWYQQKPGKAPKLLIYWASTRHTGVPSRFSGSGSGTDFTLTISSLQPEDFATYYCQQYSSYRTFGQGTKVEIKRTVAAPSVFIFPPSDEQLKSGTASVVCLLNNFYPREAKVQWKVDNALQSGNSQESVTEQDSKDSTYSLSSTLTLSKADYEKHKVYACEVTHQGLSSPVTKSFNRGEC
In the case of B1, the induction of apoptosis result in data set [22] was “induce apoptosis”.

The record behind these values is US7704502B2, “Combinations of antibodies selective for DR5 and other therapeutic agents” (The UAB Research Foundation, priority 2000, dated 2010).
